Patent US20080102130A1, “DRY GRANULATED PHARMACEUTICAL COMPOSITIONS AND METHODS FOR PRODUCING SAME” (Janssen Pharmaceutica NV, priority 2006, published 2008)

Experiment: Particle size distribution of the drug substance
Type: physicochemical
Excerpt: Tapentadol is predominantly rectangular or rod-shaped crystalline powder. […] The D10 can be as low as 5 microns while the D99 can be as high as 500 microns. Although, the particle size distribution of the drug substance is controlled during crystallization, milling or micronizing the API to less than a micron size would not affect processability, as described herein, or the attribute of the drug product. Other APIs with similar properties such as Tramadol are expected to have a similar behavior.

CC[C@@H](c1cccc(O)c1)[C@@H](C)CN(C)C [Tapentadol]
Particle size distribution D10: ≥ 5 microns
Particle size distribution D99: ≤ 500 microns
